The results in this text go back to patent publication US10703755B2, “Substituted purine derivative” (SUMITOMO DAINIPPON PHARMA CO., LTD., priority 2016, dated 2020).

The IC50 is the concentration that inhibits the measured activity by half.

The target of the assay is human TLR7 (Homo sapiens (Human), UniProt Q9NYK1). The experiment in a line: Test for evaluating the inhibition of the activation of human TLR7 (SEAP reporter, TLR7/NF-κB/SEAPorter HEK293 cell). In kind it is cell-based. The following applies: R-848 200 nmol/L; for IC50: SEAP reporter; for inhibitory effect against TLR7 in the test for evaluating inhibition of the activation of TLR7: SEAP activity, result in words. The method, boiled down:
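HEK293 cells stably expressing full-length human TLR7 and an NF-κB-driven SEAP reporter. They were grown in DMEM with 10% FBS and blasticidin, and seeded at 5×10^4 cells/well overnight at 37° C, 5% CO2. Inhibition of TLR7 activation was read as SEAP output.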

human TLR7, sequence (Q9NYK1 27-1049): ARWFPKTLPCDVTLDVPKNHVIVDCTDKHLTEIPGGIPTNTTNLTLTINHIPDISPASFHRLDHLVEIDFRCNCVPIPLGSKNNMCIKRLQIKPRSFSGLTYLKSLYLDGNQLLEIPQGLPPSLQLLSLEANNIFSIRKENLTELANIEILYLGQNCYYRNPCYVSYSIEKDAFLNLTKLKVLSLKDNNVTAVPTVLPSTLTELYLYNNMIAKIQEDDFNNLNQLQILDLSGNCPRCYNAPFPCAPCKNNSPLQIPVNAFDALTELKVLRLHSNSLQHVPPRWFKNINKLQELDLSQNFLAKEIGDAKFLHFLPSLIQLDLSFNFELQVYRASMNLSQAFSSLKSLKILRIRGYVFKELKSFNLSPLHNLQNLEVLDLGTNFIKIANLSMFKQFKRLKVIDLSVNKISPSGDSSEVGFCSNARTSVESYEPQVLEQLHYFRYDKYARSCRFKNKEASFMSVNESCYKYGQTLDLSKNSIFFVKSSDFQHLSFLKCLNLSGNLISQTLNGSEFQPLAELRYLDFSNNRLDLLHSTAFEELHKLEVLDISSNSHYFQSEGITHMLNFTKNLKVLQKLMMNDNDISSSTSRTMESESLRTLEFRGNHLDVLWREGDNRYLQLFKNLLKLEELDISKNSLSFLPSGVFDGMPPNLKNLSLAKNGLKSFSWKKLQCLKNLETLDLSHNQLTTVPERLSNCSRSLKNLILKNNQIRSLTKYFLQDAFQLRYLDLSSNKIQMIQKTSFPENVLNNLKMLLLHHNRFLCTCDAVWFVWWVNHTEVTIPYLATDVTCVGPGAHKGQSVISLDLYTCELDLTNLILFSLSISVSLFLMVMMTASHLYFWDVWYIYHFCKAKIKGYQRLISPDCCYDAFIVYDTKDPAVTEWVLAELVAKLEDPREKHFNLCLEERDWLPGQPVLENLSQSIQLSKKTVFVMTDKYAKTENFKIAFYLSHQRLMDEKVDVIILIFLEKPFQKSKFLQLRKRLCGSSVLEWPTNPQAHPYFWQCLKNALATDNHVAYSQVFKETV

`CCOc1nc(C)c2nc(-c3cncc(F)c3)n(Cc3cnc(Cl)c(F)c3)c2n1` [Example 338] gave an IC50 of 667 nM. Same read-out and setting: the figure for `CCOc1nc(C)c2nc(-c3cncc(F)c3)n(Cc3ccc(Br)cc3C#N)c2n1` [Example 339] is 160 nM. On to `COc1nc(C)c2nc(-c3cncc(C#N)c3)n(Cc3ccc(C4CN5CCC4CC5)cc3F)c2n1` (stereo not drawn) [Example 340], for which the “inhibitory effect against TLR7 in the test for evaluating inhibition of the activation of TLR7” value (“inhibitory effect against TLR7” for short) is listed as “potent inhibitory effect against TLR7” and the IC50 was determined as 26 nM. Take `COc1nc(C)c2nc(-c3cncc(F)c3)n(Cc3ccc(OS(C)(=O)=O)cc3F)c2n1` [Example 342]: the IC50 turned out to be 816 nM. Consider `COc1nc(C)c2nc(-c3cncc(C#N)c3)n(Cc3ccc(C4CCNCC4)cc3F)c2n1` [Example 343], for which the “inhibitory effect against TLR7” value is recorded as “potent inhibitory effect against TLR7” and the IC50 came to 67 nM. On the same counts, the results for `COc1nc(C)c2nc(-c3cccc(C#N)c3)n(Cc3ccc(C4CN5CCC4CC5)cc3F)c2n1` (stereo not drawn) [Example 344, 3-{9-[4-(1-azabicyclo[2.2.2]oct-3-yl)-2-fluorobenzyl]-2-methoxy-6-methyl-9H-purin-8-yl}benzonitrile] are “potent inhibitory effect against TLR7” and 12 nM. The corresponding values for `COc1nc(C)c2nc(-c3cccnc3)n(Cc3ccc(C4CCNCC4)cc3F)c2n1` [Example 345] are “potent inhibitory effect against TLR7” and 36 nM. Consider `COc1nc(C)c2nc(-c3cncnc3)n(Cc3ccc(C4CN5CCC4CC5)cc3F)c2n1` (stereo not drawn) [Example 346], for which the “inhibitory effect against TLR7” value was “potent inhibitory effect against TLR7” and the IC50 was found to be 19 nM.

In the case of `COc1nc(C)c2nc(-c3ccncc3)n(Cc3ccc(C4CN5CCC4CC5)cc3F)c2n1` (stereo not drawn) [Example 347], the “inhibitory effect against TLR7” value is “potent inhibitory effect against TLR7” and the concentration for half-maximal inhibition (IC50) was found to be 35 nM. The corresponding values for `COc1nc(C)c2nc(-c3cnc(C)nc3)n(Cc3ccc(C4CN5CCC4CC5)cc3F)c2n1` (stereo not drawn) [Example 348] are “potent inhibitory effect against TLR7” and 92 nM. `CCOc1nc(C)c2nc(-c3cncc(F)c3)n(Cc3ccc(C4=CN5CCC4CC5)cn3)c2n1` [Example 352, 9-{[5-(1-Azabicyclo[2.2.2]oct-2-en-3-yl)pyridin-2-yl]methyl}-2-ethoxy-8-(5-fluoropyridin-3-yl)-6-methyl-9H-purine] gave an IC50 of 505 nM.

Consider `COc1nc(C)c2nc(-c3cncc(F)c3)n(Cc3ccc(C4=CN5CCC4CC5)cn3)c2n1` [Example 353], for which half-maximal inhibition (IC50) required 504 nM. Regarding `CCOc1nc(C)c2nc(-c3cncc(F)c3)n(Cc3ccc(C4=CN5CCC4CC5)cc3OC)c2n1` [Example 354], the IC50 came to 36 nM.

Turning to `CCOc1nc(C)c2nc(-c3cncc(F)c3)n(Cc3cnc(C4=CN5CCC4CC5)cc3OC)c2n1` [Example 355], the IC50 amounted to 1600 nM.

Take `CCOc1nc(C)c2nc(-c3cncc(F)c3)n(Cc3ccc(C4=CN5CCC4CC5)cc3OCC)c2n1` [Example 356]: the IC50 came to 463 nM.

Consider `COc1nc(C)c2nc(-c3cncc(F)c3)n(Cc3ccc(C4=CN5CCC4CC5)c(F)c3)c2n1` [Example 357], for which the IC50 was found to be 62 nM. On the same count and under the same terms, the result for `Cc1nc(O)nc2c1nc(-c1cncc(F)c1)n2Cc1ccc(C2=CN3CCC2CC3)c(F)c1` [Example 358] reads 18 nM. Same read-out and setting: the figure for `CCOc1nc(C)c2nc(-c3cncc(F)c3)n(Cc3ncc(C4=CN5CCC4CC5)cc3F)c2n1` [Example 359] is 855 nM. Same read-out and setting: the result for `CCOc1nc(C)c2nc(-c3cncc(F)c3)n(Cc3ccc(C4=CN5CCC4CC5)nc3C(F)(F)F)c2n1` [Example 360] reads 1720 nM; that for `CCOc1nc(C)c2nc(-c3cncc(F)c3)n(Cc3ccc(C4=CN5CCC4CC5)nc3C#N)c2n1` [Example 361], 582 nM.

The compound `CCOc1nc(C)c2nc(-c3cncc(F)c3)n(Cc3ccc(C4=CN5CCC4CC5)cc3C#N)c2n1` [Example 363] displayed an IC50 of 592 nM. On the same count and under the same terms, the result for `COc1nc(C)c2nc(-c3cncc(F)c3)n(Cc3cccc(C4=CN5CCC4CC5)c3)c2n1` [Example 364] reads 11 nM. Still for that read-out and setting: the result for `CCOc1nc(C)c2nc(-c3cncc(F)c3)n(Cc3cnc(CC4CCN(C(=O)OC(C)(C)C)CC4)cc3OC)c2n1` [Example 369] reads 1690 nM; that for `CCOc1nc(C)c2nc(-c3cncc(F)c3)n(Cc3ccc(C4CN5CCC4CC5)cn3)c2n1` (stereo not drawn) [Example 370, 9-{[5-(1-Azabicyclo[2.2.2]oct-3-yl)pyridin-2-yl]methyl}-2-ethoxy-8-(5-fluoropyridin-3-yl)-6-methyl-9H-purine], 117 nM. Still for that read-out and setting: the result for `COc1nc(C)c2nc(-c3cncc(F)c3)n(Cc3ccc(C4CN5CCC4CC5)cn3)c2n1` (stereo not drawn) [Example 371] reads 264 nM. Turning to `CCOc1nc(C)c2nc(-c3cncc(F)c3)n(Cc3ccc(C4CN5CCC4CC5)cc3OC)c2n1` (stereo not drawn) [Example 372, 9-[4-(1-azabicyclo[2.2.2]oct-3-yl)-2-methoxybenzyl]-2-ethoxy-8-(5-fluoropyridin-3-yl)-6-methyl-9H-purine], the “inhibitory effect against TLR7” value is recorded as “potent inhibitory effect against TLR7” and the IC50 came out at 11 nM. The compound `CCOc1nc(C)c2nc(-c3cncc(F)c3)n(Cc3ccccc3OC)c2n1` [Example 373] had an IC50 of 209 nM. As to `CCOc1nc(C)c2nc(-c3cncc(F)c3)n(Cc3cnc(C4CN5CCC4CC5)cc3OC)c2n1` (stereo not drawn) [Example 374], the IC50 was determined as 1630 nM.

On to `CCOc1nc(C)c2nc(-c3cncc(F)c3)n(Cc3cnc(C4CCN(C)CC4)cc3OC)c2n1` [Example 375], for which the IC50 was found to be 199 nM. With `CCOc1nc(C)c2nc(-c3cncc(F)c3)n(Cc3ccc(C4CN5CCC4CC5)cc3OCC)c2n1` (stereo not drawn) [Example 376], the “inhibitory effect against TLR7” value was “potent inhibitory effect against TLR7” and it took 84 nM to reach half-maximal inhibition (IC50).

Consider `COc1nc(C)c2nc(-c3cncc(F)c3)n(Cc3ccc(C4CN5CCC4CC5)c(F)c3)c2n1` (stereo not drawn) [Example 377, 9-[4-(1-azabicyclo[2.2.2]oct-3-yl)-3-fluorobenzyl]-8-(5-fluoropyridin-3-yl)-2-methoxy-6-methyl-9H-purine], for which the “inhibitory effect against TLR7” value is reported as “potent inhibitory effect against TLR7” and the IC50 worked out at 7 nM.

Consider `CCOc1nc(C)c2nc(-c3cncc(F)c3)n(Cc3ncc(C4CN5CCC4CC5)cc3F)c2n1` (stereo not drawn) [Example 379], for which the IC50 turned out to be 506 nM. The same measure, in the same setting: the result for `COc1nc(C)c2nc(-c3cccnc3)n(Cc3ccc(C4CN5CCC4CC5)c(F)c3)c2n1` (stereo not drawn) [Example 380] reads 225 nM. Still for that read-out and setting: the figure for `CCOc1nc(C)c2nc(-c3cncc(F)c3)n(Cc3ccc(C4CN5CCC4CC5)nc3C(F)(F)F)c2n1` (stereo not drawn) [Example 381] is 1390 nM; for `CCOc1nc(C)c2nc(-c3cncc(F)c3)n(Cc3ccc(C4CN5CCC4CC5)nc3C#N)c2n1` (stereo not drawn) [Example 382] it is 575 nM. Take `CCOc1nc(C)c2nc(-c3cncc(F)c3)n(Cc3cnc(C4CN5CCC4CC5)c(F)c3)c2n1` (stereo not drawn) [Example 383]: the “inhibitory effect against TLR7” value was “potent inhibitory effect against TLR7” and the IC50 was found to be 83 nM. `CCOc1nc(C)c2nc(-c3cncc(F)c3)n(Cc3ccc(C4CN5CCC4CC5)cc3C#N)c2n1` (stereo not drawn) [Example 384] had an IC50 of 270 nM. Still for that read-out and setting: the result for `COc1nc(C)c2nc(-c3cncc(F)c3)n(Cc3ccc(C4CCN(C(=O)OC(C)(C)C)CC4)cc3F)c2n1` [Example 385] reads 94 nM. Turning to `COc1nc(C)c2nc(-c3cncc(F)c3)n(Cc3cccc(C4CN5CCC4CC5)c3)c2n1` (stereo not drawn) [Example 386, 9-[3-(1-azabicyclo[2.2.2]oct-3-yl)benzyl]-8-(5-fluoropyridin-3-yl)-2-methoxy-6-methyl-9H-purine], the “inhibitory effect against TLR7” value was “potent inhibitory effect against TLR7” and half-maximal inhibition (IC50) required 13 nM. Compound `Cc1nc(O)nc2c1nc(-c1cncc(F)c1)n2Cc1ccc(C2CN3CCC2CC3)cc1` (stereo not drawn) [Example 388, 9-[4-(1-Azabicyclo[2.2.2]oct-3-yl)benzyl]-8-(5-fluoropyridin-3-yl)-6-methyl-9H-purin-2-ol] came in with an IC50 of 1350 nM. The same measure, in the same setting: the figure for `Cc1nc(O)nc2c1nc(-c1cncc(F)c1)n2Cc1ccc(C2CN3CCC2CC3)cc1F` (stereo not drawn) [Example 389] is 2040 nM. On to `COc1nc(C)c2nc(-c3cncc(F)c3)n(Cc3ccc(C4CN5CCC4CC5)cc3F)c2n1` (stereo not drawn) [Example 392, 9-[4-(1-azabicyclo[2.2.2]oct-3-yl)-2-fluorobenzyl]-8-(5-fluoropyridin-3-yl)-2-methoxy-6-methyl-9H-purine], for which the “inhibitory effect against TLR7” value was “potent inhibitory effect against TLR7”. As for `COc1nc(C)c2nc(-c3cncc(F)c3)n(Cc3ccc(C4CN5CCC4CC5)cc3F)c2n1` (stereo not drawn) [Example 393, 9-[4-(1-azabicyclo[2.2.2]oct-3-yl)-2-fluorobenzyl]-8-(5-fluoropyridin-3-yl)-2-methoxy-6-methyl-9H-purine], the “inhibitory effect against TLR7” value is “potent inhibitory effect against TLR7”. In the case of `COc1nc(C)c2nc(-c3cncc(F)c3)n(Cc3ccc(O)cc3F)c2n1` [Example 404, 3-Fluoro-4-{[8-(5-fluoropyridin-3-yl)-2-methoxy-6-methyl-9H-purin-9-yl]methyl}phenol], the midpoint of inhibition, the IC50, lay at 846 nM. On to `COc1ccc(Cn2c(-c3cncc(F)c3)nc3c(C)nc(OC)nc32)c(F)c1` [Example 405, 9-(2-fluoro-4-methoxybenzyl)-8-(5-fluoropyridin-3-yl)-2-methoxy-6-methyl-9H-purine], for which the midpoint of inhibition, the IC50, lay at 3410 nM.
